Results taken from patent US20250236789A1, “SECOND NEAR-INFRARED ORGANIC FLUORESCENT PROBE, PREPARATION METHOD AND USE THEREOF” (INNER MONGOLIA UNIVERSITY, priority 2024, published 2025).

Columns and labels:
[1] = Emission spectrum test in aqueous solution under excitation of white light; type: physicochemical; conditions: 10 μmol·L^−1, white light excitation
Procedure: (3) Emission spectrum test of fluorescent probe coated nanoparticles: The emission spectra of HY6CT-NPs, FY6CT-NPs and CY6CT-NPs in aqueous solution were tested with steady-state transient fluorescence spectrometer, at a test concentration of 10 μmol·L^−1.

[2] = NIR-II fluorescence imaging of aqueous solutions in PE tubes under excitation of white light; type: physicochemical; conditions: aqueous solution, 10 μmol·L^−1
Description: Using NIR-II small animal imager, the PE tubes filled with the same concentration of nano-imaging probes were imaged at a test concentration of 10 μmol·L^−1.

CC1(C)C(/C=C/C=C/C=C/C=C2\N(CCCCS(=O)(=O)[O-])c3ccc4ccccc4c3C2(C)C)=[N+](CCCCS(=O)(=O)[O-])c2ccc3ccccc3c21.[Na+] [ICG]
emission spectrum under white light (in words) [1]: can hardly be detected | NIR-II fluorescence signal under excitation of white light (in words) [2]: could not detect fluorescence signals
